US9540323B2 (BRISTOL-MYERS SQUIBB COMPANY, priority 2012, dated 2017)
Where a name gives a salt, the structure may show the parent alone.

Each compound was assayed against cloned human P2Y1 receptors (Homo sapiens (Human), UniProt P47900) (assay: Binding Assay B - Scintillation Proximity Assay (SPA) for P2Y1 binding, [33P] 2MeS-ADP). Conditions: SPA, 0.3 nM [33P] 2MeS-ADP, Cheng-Prusoff; read-out: P2Y1 Ki (nM) using binding assay B.
Chain of cloned human P2Y1 receptors (P47900 whole entry): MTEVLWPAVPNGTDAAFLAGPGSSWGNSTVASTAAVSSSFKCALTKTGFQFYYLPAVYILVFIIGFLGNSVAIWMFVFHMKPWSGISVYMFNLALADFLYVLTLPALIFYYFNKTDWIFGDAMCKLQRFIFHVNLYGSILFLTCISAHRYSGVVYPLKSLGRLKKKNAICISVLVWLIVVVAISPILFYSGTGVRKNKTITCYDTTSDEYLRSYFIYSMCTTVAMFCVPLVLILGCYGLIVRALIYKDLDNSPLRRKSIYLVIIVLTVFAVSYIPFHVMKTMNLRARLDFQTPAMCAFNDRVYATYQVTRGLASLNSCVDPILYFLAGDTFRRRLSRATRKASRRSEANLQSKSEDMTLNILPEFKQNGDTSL
Method: Binding Assay B—Scintillation Proximity Assay (SPA) for P2Y1 Binding
A SPA membrane binding assay was used to identify inhibitors of [^33P] […] Reactions were allowed to proceed to completion at room temperature for 1 hour followed by centrifugation of the plate for 5 min. About 40 μL of the aqueous solution was aspirated. Plates were sealed and the [^33P]
For `CC(C)(C)c1ccc(NC(=O)Nc2ccccc2N2CC(C)(C)c3ccccc32)cc1` [Comparator 1, reference compound], the Ki was 12.9 nM.
Compound `CC1(C)CN(c2ccccc2NC(=O)Nc2ccc(OC(F)(F)F)cc2)c2ccccc21` [Comparator 2, reference compound] has a Ki of 8.7 nM.
`CC(C)(C)c1ccccc1Oc1ncccc1NC(=O)Nc1ccccc1N1CC(C)(C)c2ccccc21` [Comparator 3, reference compound] showed a Ki of 759 nM.
With `CC1(C)CN(c2ccccc2NC(=O)Nc2nc3ccc(F)cc3s2)c2c(O)ccc(Br)c21` [Example 1, 1-(2-(4-Bromo-7-hydroxy-3,3-dimethylindolin-1-yl)phenyl)-3-(6-fluorobenzo[d]thiazol-2-yl)urea] the Ki was 10.8 nM.
With `CC1(C)CN(c2ccccc2NC(=O)Nc2ccc(OC(F)(F)F)cc2)c2c(O)cc(F)c(-c3ccc(C(F)(F)F)cc3)c21` [Example 222, 1-(2-(5-Fluoro-7-hydroxy-3,3-dimethyl-4-(4-(trifluoromethyl)phenyl)indolin-1-yl)phenyl)-3-(4-(trifluoromethoxy)phenyl)urea] the Ki was 35 nM.
Compound `CC1(C)CN(c2ccccc2NC(=O)Nc2csc(C(F)(F)F)n2)c2c(O)cc(F)c(-c3ccc(Cl)cc3)c21` [Example 223, 1-(2-(4-(4-Chlorophenyl)-5-fluoro-7-hydroxy-3,3-dimethylindolin-1-yl)phenyl)-3-(2-(trifluoromethyl)thiazol-4-yl)urea] has a Ki of 34.4 nM.

The compounds below were run on human platelet rich plasma (PRP) (assay: ADP induced platelet aggregation assay). Conditions: Homo sapiens, Platelet, 5 min, read-out: PA IC50 (μM) @ 10 μM ADP, human PRP, 10 μM ADP, AUC at 5 minute.
In the case of `CC(C)(C)c1ccc(NC(=O)Nc2ccccc2N2CC(C)(C)c3ccccc32)cc1` [Comparator 1, reference compound], the IC50 is reported as greater than 20 µM.
`CC1(C)CN(c2ccccc2NC(=O)Nc2ccc(OC(F)(F)F)cc2)c2ccccc21` [Comparator 2, reference compound] was tested, and the IC50 was greater than 20 µM.
Compound `CC(C)(C)c1ccccc1Oc1ncccc1NC(=O)Nc1ccccc1N1CC(C)(C)c2ccccc21` [Comparator 3, reference compound] has an IC50 greater than 20 µM.
With `CC1(C)CN(c2ccccc2NC(=O)Nc2nc3ccc(F)cc3s2)c2c(O)ccc(Br)c21` [Example 1, 1-(2-(4-Bromo-7-hydroxy-3,3-dimethylindolin-1-yl)phenyl)-3-(6-fluorobenzo[d]thiazol-2-yl)urea] the IC50 was 0.47 µM.
Compound `CCC1(CC)CN(c2ccccc2NC(=O)Nc2nc3ccc(F)cc3s2)c2c(O)ccc(F)c21` [Example 32, 1-(2-(3,3-Diethyl-4-fluoro-7-hydroxyindolin-1-yl)phenyl)-3-(6-fluorobenzo[d]thiazol-2-yl)urea] has an IC50 of 0.37 µM.
With `CC1(C)CN(c2ccccc2NC(=O)Nc2ccc(OC(F)(F)F)cc2)c2c(O)ccc(-c3ccc(F)nc3)c21` [Example 115, 1-(2-(4-(6-Fluoropyridin-3-yl)-7-hydroxy-3,3-dimethylindolin-1-yl)phenyl)-3-(4-(trifluoromethoxy)phenyl) urea] the IC50 was 0.31 µM.
With `COc1cncc(-c2ccc(O)c3c2C(C)(C)CN3c2ccccc2NC(=O)Nc2ccc(OC(F)(F)F)cc2)c1` [Example 118, 1-(2-(7-Hydroxy-4-(5-methoxypyridin-3-yl)-3,3-dimethylindolin-1-yl)phenyl)-3-(4-(trifluoromethoxy)phenyl) urea] the IC50 was 0.6 µM.
With `CC1(C)CN(c2ccccc2NC(=O)Nc2ccc(OC(F)(F)F)cc2)c2c(O)ccc(-c3ccc(Cl)cn3)c21` [Example 122, 1-(2-(4-(5-Chloropyridin-2-yl)-7-hydroxy-3,3-dimethylindolin-1-yl)phenyl)-3-(4-(trifluoromethoxy)phenyl)urea] the IC50 was 0.51 µM.
`CC1(C)CN(c2ccccc2NC(=O)Nc2ccc(OC(F)(F)F)cc2)c2c(O)ccc(-c3nc4ccc(Cl)cc4s3)c21` [Example 136, 1-(2-(4-(6-Chlorobenzo[d]thiazol-2-yl)-7-hydroxy-3,3-dimethylindolin-1-yl)phenyl)-3-(4-(trifluoromethoxy)phenyl)urea] was tested, and the IC50 was 0.5 µM.
`CC1(C)CN(c2ccccc2NC(=O)Nc2nc3ccc(F)cc3s2)c2c(O)ccc(-c3nc4ccc(Cl)cc4s3)c21` [Example 137, 1-(2-(4-(6-Chlorobenzo[d]thiazol-2-yl)-7-hydroxy-3,3-dimethylindolin-1-yl)phenyl)-3-(6-fluorobenzo[d]thiazol-2-yl)urea] gave an IC50 of 1.06 µM.
Work on `CC1(C)CN(c2ccccc2NC(=O)Nc2nc3ccc(F)cc3s2)c2c(O)cc(F)c(-c3nc4cc(Cl)ccc4s3)c21` [Example 138, 1-(2-(4-(5-Chlorobenzo[d]thiazol-2-yl)-5-fluoro-7-hydroxy-3,3-dimethylindolin-1-yl)phenyl)-3-(6-fluorobenzo[d]thiazol-2-yl)urea] yielded an IC50 of 0.47 µM.
Work on `CC1(C)CN(c2ccccc2NC(=O)Nc2nc3ccc(Cl)cc3s2)c2c(O)cc(F)c(-c3nc4ccc(F)cc4s3)c21` [Example 139, 1-(6-Chlorobenzo[d]thiazol-2-yl)-3-(2-(5-fluoro-4-(6-fluorobenzo[d]thiazol-2-yl)-7-hydroxy-3,3-dimethylindolin-1-yl)phenyl)urea] yielded an IC50 of 0.57 µM.
For `CC1(C)CN(c2ccccc2NC(=O)Nc2nc3ccc(F)cc3s2)c2c(O)cc(F)c(-c3ccc(Cl)s3)c21` [Example 140, 1-(2-(4-(5-Chlorothiophen-2-yl)-5-fluoro-7-hydroxy-3,3-dimethylindolin-1-yl)phenyl)-3-(6-fluorobenzo[d]thiazol-2-yl)urea], the IC50 was 0.17 µM.
Work on `CC1(C)CN(c2ccccc2NC(=O)Nc2nc3ccc(Cl)nc3s2)c2c(O)cc(F)c(-c3nc4cc(Cl)ccc4s3)c21` [Example 141, 1-(2-(4-(5-Chlorobenzo[d]thiazol-2-yl)-5-fluoro-7-hydroxy-3,3-dimethylindolin-1-yl)phenyl)-3-(5-chlorothiazolo[5,4-b]pyridin-2-yl)urea] yielded an IC50 of 0.55 µM.
For `CC1(C)CN(c2ccccc2NC(=O)Nc2ccc(OC(F)(F)F)cc2)c2c(O)cc(F)c(-c3ccc(Cl)s3)c21` [Example 142, 1-(2-(4-(5-Chlorothiophen-2-yl)-5-fluoro-7-hydroxy-3,3-dimethylindolin-1-yl)phenyl)-3-(4-(trifluoromethoxy)phenyl)urea], the IC50 was 0.13 µM.
With `CC1(C)CN(c2ccccc2NC(=O)Nc2nc3ccc(Cl)nc3s2)c2c(O)cc(F)c(-c3nc4ccc(F)cc4s3)c21` [Example 143, 1-(5-Chlorothiazolo[5,4-b]pyridin-2-yl)-3-(2-(5-fluoro-4-(6-fluorobenzo[d]thiazol-2-yl)-7-hydroxy-3,3-dimethylindolin-1-yl)phenyl)urea] the IC50 was 0.33 µM.
Work on `CC1(C)CN(c2ccccc2NC(=O)Nc2nc3ccc(Cl)nc3s2)c2c(O)cc(F)c(-c3ccc(Cl)s3)c21` [Example 145, 1-(5-Chlorothiazolo[5,4-b]pyridin-2-yl)-3-(2-(4-(5-chlorothiophen-2-yl)-5-fluoro-7-hydroxy-3,3-dimethylindolin-1-yl)phenyl)urea] yielded an IC50 of 0.13 µM.
With `CC1(C)CN(c2ccccc2NC(=O)Nc2nc3ccc(Cl)cc3s2)c2c(O)cc(F)c(-c3nc4cc(Cl)ccc4s3)c21` [Example 156, 1-(6-Chlorobenzo[d]thiazol-2-yl)-3-(2-(4-(5-chlorobenzo[d]thiazol-2-yl)-5-fluoro-7-hydroxy-3,3-dimethylindolin-1-yl)phenyl)urea] the IC50 was 0.97 µM.
In the case of `CC1(C)CN(c2ccccc2NC(=O)Nc2ccc(OC(F)(F)F)cc2)c2c(O)cc(F)c(-c3ncc(Br)cn3)c21` [Example 166, 1-(2-(4-(5-Bromopyrimidin-2-yl)-5-fluoro-7-hydroxy-3,3-dimethylindolin-1-yl)phenyl)-3-(4-(trifluoromethoxy)phenyl)urea], the IC50 is reported as 1.25 µM.
`CC1(C)CN(c2ccccc2NC(=O)Nc2csc(Cl)n2)c2c(O)cc(F)c(-c3nc4cc(Cl)ccc4s3)c21` [Example 167, 1-(2-(4-(5-Chlorobenzo[d]thiazol-2-yl)-5-fluoro-7-hydroxy-3,3-dimethylindolin-1-yl)phenyl)-3-(2-chlorothiazol-4-yl)urea] showed an IC50 of 0.47 µM.
`CC1(C)CN(c2ccccc2NC(=O)Nc2csc(Cl)n2)c2c(O)cc(F)c(-c3ccc(C(F)(F)F)cn3)c21` [Example 169, 1-(2-Chlorothiazol-4-yl)-3-(2-(5-fluoro-7-hydroxy-3,3-dimethyl-4-(5-(trifluoromethyl)pyridin-2-yl)indolin-1-yl)phenyl)urea] was tested, and the IC50 was 0.1 µM.
Compound `CC1(C)CN(c2ccccc2NC(=O)Nc2nc3ccc(Cl)cc3s2)c2c(O)ccc(-c3nc4cc(F)ccc4s3)c21` [Example 172, 1-(6-Chlorobenzo[d]thiazol-2-yl)-3-(2-(4-(5-fluorobenzo[d]thiazol-2-yl)-7-hydroxy-3,3-dimethylindolin-1-yl)phenyl)urea, TFA] has an IC50 of 0.26 µM.
`CC1(C)CN(c2ccccc2NC(=O)Nc2ccc(OC(F)(F)F)cc2)c2c(O)c(F)cc(-c3nc4cc(Cl)ccc4s3)c21` [Example 177, 1-(2-(4-(5-Chlorobenzo[d]thiazol-2-yl)-6-fluoro-7-hydroxy-3,3-dimethylindolin-1-yl)phenyl)-3-(4-(trifluoromethoxy)phenyl)urea] was tested, and the IC50 was 2.3 µM.
With `COC(=O)c1ccc(-c2c(F)cc(O)c3c2C(C)(C)CN3c2ccccc2NC(=O)Nc2ccc(OC(F)(F)F)cc2)cc1` [Example 244, Methyl 4-(5-fluoro-7-hydroxy-3,3-dimethyl-1-(2-(3-(4-(trifluoromethoxy)phenyl)ureido)phenyl)indolin-4-yl)benzoate] the IC50 was 0.3 µM.
With `CC1(C)CN(c2ccccc2NC(=O)Nc2ccc(OC(F)(F)F)cc2)c2c(O)cc(F)c(-c3cc(C(F)(F)F)n[nH]3)c21` [Example 275, 1-(2-(5-Fluoro-7-hydroxy-3,3-dimethyl 4-(3-(trifluoromethyl)-1H-pyrazol-5-yl)indolin-1-yl)phenyl)-3-(4-(trifluoromethoxy)phenyl)urea] the IC50 was 5.69 µM.

Same assay, conditions: read-out: PA IC50 (μM) @ 10 μM ADP; human PRP, 10 μM ADP, AUC at 5 minute
Work on `CC1(C)CN(c2ccccc2NC(=O)Nc2nc3ccc(F)cc3s2)c2c(O)cc(F)c(-c3ccc(F)cc3)c21` [Example 219, 1-(2-(5-Fluoro-4-(4-fluorophenyl)-7-hydroxy-3,3-dimethylindolin-1-yl)phenyl)-3-(6-fluorobenzo[d]thiazol-2-yl)urea] yielded an IC50 of 0.36 µM.
With `CC1(C)CN(c2ccccc2NC(=O)Nc2ccc(OC(F)(F)F)cc2)c2c(O)cc(F)c(-c3ccc(Cl)cc3)c21` [Example 220, 1-(2-(4-(4-Chlorophenyl)-5-fluoro-7-hydroxy-3,3-dimethylindolin-1-yl)phenyl)-3-(4-(trifluoromethoxy)phenyl)urea] the IC50 was 0.24 µM.
`CC1(C)CN(c2ccccc2NC(=O)Nc2csc(Cl)n2)c2c(O)cc(F)c(-c3ccc(Cl)cc3)c21` [Example 221, 1-(2-(4-(4-Chlorophenyl)-5-fluoro-7-hydroxy-3,3-dimethylindolin-1-yl)phenyl)-3-(2-chlorothiazol-4-yl)urea] showed an IC50 of 0.13 µM.
